Data taken from paper PMC10361003 (Journal of Enzyme Inhibition and Medicinal Chemistry, 2023).

Target: T1, aldose reductase (Homo sapiens, UniProt P15121)
Assay: In vitro enzyme inhibitory assay against human aldose reductase
Type: biochemical
Conditions: AR inhibition, Epalrestat as positive control
`O=C(CN1C(=O)S/C(=C\c2ccc([N+](=O)[O-])cc2)C1=O)c1ccc([N+](=O)[O-])cc1` [Compound 5a, (Z)-5-(4-nitrobenzylidene)-3-(2-(4-nitrophenyl)-2-oxoethyl)thiazolidine-2,4-dione] gave an IC50 of 220 nM.
Compound `O=C(CN1C(=O)S/C(=C\c2ccc(Cl)cc2)C1=O)c1ccc([N+](=O)[O-])cc1` [Compound 5b, (Z)-5-(4-chlorobenzylidene)-3-(2-(4-nitrophenyl)-2-oxoethyl)thiazolidine-2,4-dione] has an IC50 of 460 nM.
Compound `O=C(CN1C(=O)S/C(=C\c2ccc(Br)cc2)C1=O)c1ccc([N+](=O)[O-])cc1` [Compound 5c, (Z)-5-(4-bromobenzylidene)-3-(2-(4-nitrophenyl)-2-oxoethyl)thiazolidine-2,4-dione] has an IC50 of 490 nM.
Work on `O=C(CN1C(=O)S/C(=C\c2ccc(F)cc2)C1=O)c1ccc([N+](=O)[O-])cc1` [Compound 5d, (Z)-5-(4-fluorobenzylidene)-3-(2-(4-nitrophenyl)-2-oxoethyl)thiazolidine-2,4-dione] yielded an IC50 of 570 nM.
Work on `Cc1ccc(/C=C2\SC(=O)N(CC(=O)c3ccc([N+](=O)[O-])cc3)C2=O)cc1` [Compound 5e, (Z)-5-(4-methylbenzylidene)-3-(2-(4-nitrophenyl)-2-oxoethyl)thiazolidine-2,4-dione] yielded an IC50 of 550 nM.
With `COc1ccc(/C=C2\SC(=O)N(CC(=O)c3ccc([N+](=O)[O-])cc3)C2=O)cc1` [Compound 5f, (Z)-5-(4-methoxybenzylidene)-3-(2-(4-nitrophenyl)-2-oxoethyl)thiazolidine-2,4-dione] the IC50 was 280 nM.
Compound `COc1cc(/C=C2\SC(=O)N(CC(=O)c3ccc([N+](=O)[O-])cc3)C2=O)cc(OC)c1OC` [Compound 5g, (Z)-3-(2-(4-nitrophenyl)-2-oxoethyl)-5-(3,4,5-trimethoxybenzylidene)thiazolidine-2,4-dione] has an IC50 of 720 nM.
With `O=C(CN1C(=O)S/C(=C\c2cccc([N+](=O)[O-])c2)C1=O)c1ccc([N+](=O)[O-])cc1` [Compound 5h, (Z)-5-(3-nitrobenzylidene)-3-(2-(4-nitrophenyl)-2-oxoethyl)thiazolidine-2,4-dione] the IC50 was 510 nM.
Work on `O=C(CN1C(=O)S/C(=C\c2cccc(Br)c2)C1=O)c1ccc([N+](=O)[O-])cc1` [Compound 5k, (Z)-5-(3-bromobenzylidene)-3-(2-(4-nitrophenyl)-2-oxoethyl)thiazolidine-2,4-dione] yielded an IC50 of 410 nM.
`O=C1S/C(=C\c2ccc([N+](=O)[O-])cc2)C(=O)N1Cc1nc2ccccc2s1` [Compound 8a, (Z)-3-(benzo[d]thiazol-2-ylmethyl)-5-(4-nitrobenzylidene)thiazolidine-2,4-dione] gave an IC50 of 1980 nM.
`O=C1S/C(=C\c2ccc(Cl)cc2)C(=O)N1Cc1nc2ccccc2s1` [Compound 8b, (Z)-3-(benzo[d]thiazol-2-ylmethyl)-5-(4-chlorobenzylidene)thiazolidine-2,4-dione] gave an IC50 of 160 nM.
`O=C1S/C(=C\c2ccc(Br)cc2)C(=O)N1Cc1nc2ccccc2s1` [Compound 8c, (Z)-3-(benzo[d]thiazol-2-ylmethyl)-5-(4-bromobenzylidene)thiazolidine-2,4-dione] gave an IC50 of 210 nM.
Work on `O=C1S/C(=C\c2ccc(F)cc2)C(=O)N1Cc1nc2ccccc2s1` [Compound 8d, (Z)-3-(benzo[d]thiazol-2-ylmethyl)-5-(4-fluorobenzylidene)thiazolidine-2,4-dione] yielded an IC50 of 330 nM.
Work on `Cc1ccc(/C=C2\SC(=O)N(Cc3nc4ccccc4s3)C2=O)cc1` [Compound 8e, (Z)-3-(benzo[d]thiazol-2-ylmethyl)-5-(4-methylbenzylidene)thiazolidine-2,4-dione] yielded an IC50 of 290 nM.
Compound `COc1ccc(/C=C2\SC(=O)N(Cc3nc4ccccc4s3)C2=O)cc1` [Compound 8f, (Z)-3-(benzo[d]thiazol-2-ylmethyl)-5-(4-methoxybenzylidene)thiazolidine-2,4-dione] has an IC50 of 940 nM.
Work on `COc1cc(/C=C2\SC(=O)N(Cc3nc4ccccc4s3)C2=O)cc(OC)c1OC` [Compound 8g, (Z)-3-(benzo[d]thiazol-2-ylmethyl)-5-(3,4,5-trimethoxybenzylidene)thiazolidine-2,4-dione] yielded an IC50 of 270 nM.
In the case of `COc1ccc(/C=C2\SC(=O)N(Cc3nc4ccccc4s3)C2=O)cc1OC` [Compound 8h, (Z)-3-(benzo[d]thiazol-2-ylmethyl)-5-(3,4-dimethoxybenzylidene)thiazolidine-2,4-dione], the IC50 is reported as 450 nM.

Target: T1, aldose reductase
Assay: not given
Conditions: at 0.5 IC50
With `O=C1S/C(=C\c2ccc(Cl)cc2)C(=O)N1Cc1nc2ccccc2s1` [Compound 8b, (Z)-3-(benzo[d]thiazol-2-ylmethyl)-5-(4-chlorobenzylidene)thiazolidine-2,4-dione] the “effect on Km” value was “slight reduction” and the “effect on Vmax” value was “significant reduction”.

Same assay, conditions: at concentrations equal to IC50 and double of IC50
In the case of `O=C1S/C(=C\c2ccc(Cl)cc2)C(=O)N1Cc1nc2ccccc2s1` [Compound 8b, (Z)-3-(benzo[d]thiazol-2-ylmethyl)-5-(4-chlorobenzylidene)thiazolidine-2,4-dione], the “effect on Km and Vmax” value is reported as “decreased significantly”.

Tested on: AR
Assay: not given
Conditions: read-out: IC50 (reported AR inhibition); Zopolrestat; cited from earlier work
For `O=C(O)Cc1nn(Cc2nc3cc(C(F)(F)F)ccc3s2)c(=O)c2ccccc12` [Zopolrestat, 3,4-dihydro-4-oxo-3-[[5-(trifluoromethyl)-2-benzothiazolyl]methyl]-1-phthalazineacetic acid], the IC50 is given as 3.1 nM.
